Measurements reported in PubChem BioAssay (NCI).
Values joined by “and” are separate entries in the source; they are usually repeats but may differ in a detail not shown here. Equal entries are not always repeated.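 These data come from cells grown in 96-well plates and exposed to compound for 48 hours at five concentrations. Here, GI50 denotes the concentration required for 50% inhibition of growth. Definition used: TGI = concentration required for complete inhibition of growth.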

What was measured:
Assay in all cases: inhibition of tumour cell growth, NCI panel, 48 h
[1] = test system: SK-OV-3 ovarian
[2] = test system: M14 melanoma
[3] = test system: OVCAR-8 ovarian
[4] = test system: PC-3 prostate
[5] = test system: KM12 colon
[6] = test system: SF-295 CNS
[7] = test system: BT-549 breast
[8] = test system: OVCAR-5 ovarian
[9] = test system: MCF7 breast
[10] = test system: MDA-N
[11] = test system: SK-MEL-28 melanoma
[12] = test system: SK-MEL-5 melanoma
[13] = test system: 786-0 renal
[14] = test system: OVCAR-4 ovarian
[15] = test system: HOP-92 NSCLC
[16] = test system: NCI-H226 lung
[17] = test system: SW-620 colon
[18] = test system: MOLT-4 leukemia
[19] = test system: NCI/ADR-RES ovarian
[20] = test system: UO-31 renal
[21] = test system: DU-145 prostate
[22] = test system: HCT-116 colon
[23] = test system: SF-268 CNS
[24] = test system: TK-10 renal
[25] = test system: SR leukemia
[26] = test system: A549 NSCLC
[27] = test system: HOP-62 NSCLC
[28] = test system: HCT-15 colon
[29] = test system: MALME-3M melanoma
[30] = test system: MDA-MB-435
[31] = test system: UACC-257 melanoma
[32] = test system: SF-539 CNS
[33] = test system: NCI-H460 lung
[34] = test system: RXF 393 renal
[35] = test system: UACC-62 melanoma
[36] = test system: U251 CNS
[37] = test system: SNB-75 CNS
[38] = test system: CCRF-CEM leukemia
[39] = test system: K-562 leukemia
[40] = test system: HT29 colon
[41] = test system: MDA-MB-231 breast
[42] = test system: HCC-2998 colon
[43] = test system: SNB-19 CNS
[44] = test system: RPMI-8226 leukemia
[45] = test system: EKVX NSCLC
[46] = test system: COLO 205 colon
[47] = test system: LOX IMVI melanoma
[48] = test system: NCI-H522 lung
[49] = test system: OVCAR-3 ovarian
[50] = test system: SK-MEL-2 melanoma
[51] = test system: CAKI-1 renal
[52] = test system: SN12C renal
[53] = test system: IGROV1 ovarian
[54] = test system: ACHN renal
[55] = test system: NCI-H23 lung
[56] = test system: HL-60(TB) leukemia
[57] = test system: A498 renal

COC1OC(C(=O)O)C2OC(C)(C)OC12 (centres undefined)
TGI [1]: > 100 µM | TGI [2]: > 100 µM | TGI [3]: > 100 µM | TGI [4]: > 100 µM | TGI [5]: > 100 µM | TGI [6]: > 100 µM | TGI [7]: > 100 µM | TGI [8]: > 100 µM | TGI [9]: > 100 µM | TGI [10]: > 100 µM | TGI [11]: > 100 µM | TGI [12]: > 100 µM | TGI [13]: > 100 µM | TGI [14]: > 100 µM | TGI [15]: > 100 µM | TGI [16]: > 100 µM | TGI [17]: > 100 µM | TGI [18]: > 100 µM | TGI [19]: > 100 µM | TGI [20]: > 100 µM | TGI [21]: > 100 µM | TGI [22]: > 100 µM | TGI [23]: > 100 µM | TGI [24]: > 100 µM | TGI [25]: > 100 µM | TGI [26]: > 100 µM | TGI [27]: > 100 µM | TGI [28]: > 100 µM | TGI [29]: > 100 µM | TGI [30]: > 100 µM | TGI [31]: > 100 µM | TGI [32]: > 100 µM | TGI [33]: > 100 µM | TGI [34]: > 100 µM | TGI [35]: > 100 µM | TGI [36]: > 100 µM | TGI [37]: > 100 µM | TGI [38]: > 100 µM | TGI [39]: > 100 µM | TGI [40]: > 100 µM | TGI [41]: > 100 µM | TGI [42]: > 100 µM | TGI [43]: > 100 µM | TGI [44]: > 100 µM | TGI [45]: > 100 µM | TGI [46]: > 100 µM | TGI [47]: > 100 µM | TGI [48]: > 100 µM | TGI [49]: > 100 µM | TGI [50]: > 100 µM | TGI [51]: > 100 µM | TGI [52]: > 100 µM | TGI [53]: > 100 µM | TGI [54]: > 100 µM | TGI [55]: > 100 µM

CC(C)=CCCC1(C)C2COC(=O)C21 (centres undefined)
TGI [1]: > 100 µM | TGI [4]: > 100 µM | GI50 [5]: > 100 µM and 42.1 µM | TGI [5]: > 100 µM | TGI [6]: > 100 µM | TGI [7]: > 100 µM | TGI [8]: > 100 µM | TGI [9]: > 100 µM | GI50 [10]: > 100 µM and 31.7 µM | TGI [10]: > 100 µM | TGI [11]: > 100 µM | GI50 [12]: > 100 µM and 17.5 µM | TGI [12]: > 100 µM and 34.6 µM | TGI [13]: > 100 µM | GI50 [56]: 43.3 µM and 18.8 µM | TGI [56]: > 100 µM and 40.9 µM | TGI [14]: > 100 µM | GI50 [15]: > 100 µM and 34.2 µM | TGI [15]: > 100 µM and 97.3 µM | GI50 [16]: > 100 µM | TGI [16]: > 100 µM | TGI [17]: > 100 µM | TGI [20]: > 100 µM | TGI [21]: > 100 µM | GI50 [22]: > 100 µM and 19.8 µM | TGI [22]: > 100 µM and 35.4 µM | TGI [23]: > 100 µM | TGI [24]: > 100 µM | GI50 [25]: > 100 µM | TGI [25]: > 100 µM | GI50 [27]: > 100 µM and 27.6 µM | TGI [27]: > 100 µM and 75.4 µM | GI50 [28]: > 100 µM and 37 µM | TGI [28]: > 100 µM | TGI [29]: > 100 µM | GI50 [30]: > 100 µM and 43.6 µM | TGI [30]: > 100 µM | TGI [31]: > 100 µM | GI50 [33]: > 100 µM and 19.3 µM | TGI [33]: > 100 µM and 34.1 µM | TGI [34]: > 100 µM | TGI [35]: > 100 µM | GI50 [36]: > 100 µM and 43.5 µM | TGI [36]: > 100 µM | GI50 [38]: 39.3 µM and 12.3 µM | TGI [38]: > 100 µM and 52.6 µM | TGI [39]: > 100 µM and 27.4 µM | TGI [40]: > 100 µM | TGI [41]: > 100 µM | TGI [42]: > 100 µM | TGI [43]: > 100 µM | TGI [44]: > 100 µM | TGI [45]: > 100 µM | TGI [57]: > 100 µM | GI50 [46]: > 100 µM and 34.2 µM | TGI [46]: > 100 µM | GI50 [47]: 38.8 µM and 19 µM | TGI [47]: > 100 µM and 34.7 µM | GI50 [48]: > 100 µM and 47.2 µM | TGI [48]: > 100 µM | TGI [50]: > 100 µM | GI50 [51]: > 100 µM and 16 µM | TGI [51]: > 100 µM and 30.7 µM | GI50 [52]: 52.8 µM and 19.3 µM | TGI [52]: > 100 µM and 39.9 µM | TGI [53]: > 100 µM | TGI [54]: > 100 µM | GI50 [55]: > 100 µM and 26.7 µM | TGI [55]: > 100 µM and 60.1 µM
